Source: ChEMBL document CHEMBL3784917, “Recent Progress in Histone Demethylase Inhibitors” (J Med Chem, 2016)

Legend:
[1] = biological target: Lysine-specific demethylase 5C (Homo sapiens, UniProt P41229); experiment: biochemical
[2] = biological target: Lysine-specific demethylase 5B (Homo sapiens, UniProt Q9UGL1)
[3] = biological target: T1, Lysine-specific demethylase 2B (Homo sapiens, UniProt Q8NHM5); experiment: biochemical
T1 sequence (Q8NHM5 whole entry): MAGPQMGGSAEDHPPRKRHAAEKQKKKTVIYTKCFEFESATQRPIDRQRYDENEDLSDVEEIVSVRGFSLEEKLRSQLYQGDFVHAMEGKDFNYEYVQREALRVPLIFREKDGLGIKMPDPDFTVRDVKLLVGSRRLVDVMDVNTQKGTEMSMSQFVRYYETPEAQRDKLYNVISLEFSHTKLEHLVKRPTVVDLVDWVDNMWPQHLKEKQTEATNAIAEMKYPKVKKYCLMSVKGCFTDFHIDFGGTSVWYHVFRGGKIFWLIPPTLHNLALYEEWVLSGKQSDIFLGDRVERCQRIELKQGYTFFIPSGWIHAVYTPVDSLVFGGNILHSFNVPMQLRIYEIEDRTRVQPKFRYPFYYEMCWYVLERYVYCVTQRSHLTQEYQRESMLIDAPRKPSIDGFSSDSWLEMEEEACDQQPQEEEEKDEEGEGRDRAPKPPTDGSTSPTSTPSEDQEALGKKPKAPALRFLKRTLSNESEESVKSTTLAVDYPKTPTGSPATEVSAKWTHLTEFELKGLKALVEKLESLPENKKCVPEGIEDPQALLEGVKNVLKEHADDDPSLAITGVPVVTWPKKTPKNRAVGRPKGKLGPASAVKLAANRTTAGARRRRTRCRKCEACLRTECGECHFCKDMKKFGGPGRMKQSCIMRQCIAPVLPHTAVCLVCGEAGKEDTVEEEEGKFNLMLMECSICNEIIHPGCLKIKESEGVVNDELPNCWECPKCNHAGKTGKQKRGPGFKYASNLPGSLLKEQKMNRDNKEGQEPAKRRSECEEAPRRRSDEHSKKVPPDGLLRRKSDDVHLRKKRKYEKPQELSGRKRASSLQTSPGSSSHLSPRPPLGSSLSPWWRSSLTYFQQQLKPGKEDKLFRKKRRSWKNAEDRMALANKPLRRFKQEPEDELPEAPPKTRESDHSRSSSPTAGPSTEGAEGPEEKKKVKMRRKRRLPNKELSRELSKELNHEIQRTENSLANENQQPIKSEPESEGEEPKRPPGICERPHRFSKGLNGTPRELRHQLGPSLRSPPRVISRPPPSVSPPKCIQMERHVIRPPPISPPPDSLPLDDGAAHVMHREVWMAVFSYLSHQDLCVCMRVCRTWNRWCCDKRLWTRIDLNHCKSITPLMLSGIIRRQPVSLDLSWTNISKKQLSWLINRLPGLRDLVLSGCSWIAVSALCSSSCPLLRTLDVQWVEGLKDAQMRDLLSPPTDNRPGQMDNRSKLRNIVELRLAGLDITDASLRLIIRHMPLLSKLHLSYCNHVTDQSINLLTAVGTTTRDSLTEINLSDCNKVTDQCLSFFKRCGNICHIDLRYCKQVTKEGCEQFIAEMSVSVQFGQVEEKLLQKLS

[4] = biological target: Lysine-specific demethylase 6B (Homo sapiens, UniProt O15054); experiment: biochemical
Chain of Lysine-specific demethylase 6B (O15054 whole entry, the tested form may be a part): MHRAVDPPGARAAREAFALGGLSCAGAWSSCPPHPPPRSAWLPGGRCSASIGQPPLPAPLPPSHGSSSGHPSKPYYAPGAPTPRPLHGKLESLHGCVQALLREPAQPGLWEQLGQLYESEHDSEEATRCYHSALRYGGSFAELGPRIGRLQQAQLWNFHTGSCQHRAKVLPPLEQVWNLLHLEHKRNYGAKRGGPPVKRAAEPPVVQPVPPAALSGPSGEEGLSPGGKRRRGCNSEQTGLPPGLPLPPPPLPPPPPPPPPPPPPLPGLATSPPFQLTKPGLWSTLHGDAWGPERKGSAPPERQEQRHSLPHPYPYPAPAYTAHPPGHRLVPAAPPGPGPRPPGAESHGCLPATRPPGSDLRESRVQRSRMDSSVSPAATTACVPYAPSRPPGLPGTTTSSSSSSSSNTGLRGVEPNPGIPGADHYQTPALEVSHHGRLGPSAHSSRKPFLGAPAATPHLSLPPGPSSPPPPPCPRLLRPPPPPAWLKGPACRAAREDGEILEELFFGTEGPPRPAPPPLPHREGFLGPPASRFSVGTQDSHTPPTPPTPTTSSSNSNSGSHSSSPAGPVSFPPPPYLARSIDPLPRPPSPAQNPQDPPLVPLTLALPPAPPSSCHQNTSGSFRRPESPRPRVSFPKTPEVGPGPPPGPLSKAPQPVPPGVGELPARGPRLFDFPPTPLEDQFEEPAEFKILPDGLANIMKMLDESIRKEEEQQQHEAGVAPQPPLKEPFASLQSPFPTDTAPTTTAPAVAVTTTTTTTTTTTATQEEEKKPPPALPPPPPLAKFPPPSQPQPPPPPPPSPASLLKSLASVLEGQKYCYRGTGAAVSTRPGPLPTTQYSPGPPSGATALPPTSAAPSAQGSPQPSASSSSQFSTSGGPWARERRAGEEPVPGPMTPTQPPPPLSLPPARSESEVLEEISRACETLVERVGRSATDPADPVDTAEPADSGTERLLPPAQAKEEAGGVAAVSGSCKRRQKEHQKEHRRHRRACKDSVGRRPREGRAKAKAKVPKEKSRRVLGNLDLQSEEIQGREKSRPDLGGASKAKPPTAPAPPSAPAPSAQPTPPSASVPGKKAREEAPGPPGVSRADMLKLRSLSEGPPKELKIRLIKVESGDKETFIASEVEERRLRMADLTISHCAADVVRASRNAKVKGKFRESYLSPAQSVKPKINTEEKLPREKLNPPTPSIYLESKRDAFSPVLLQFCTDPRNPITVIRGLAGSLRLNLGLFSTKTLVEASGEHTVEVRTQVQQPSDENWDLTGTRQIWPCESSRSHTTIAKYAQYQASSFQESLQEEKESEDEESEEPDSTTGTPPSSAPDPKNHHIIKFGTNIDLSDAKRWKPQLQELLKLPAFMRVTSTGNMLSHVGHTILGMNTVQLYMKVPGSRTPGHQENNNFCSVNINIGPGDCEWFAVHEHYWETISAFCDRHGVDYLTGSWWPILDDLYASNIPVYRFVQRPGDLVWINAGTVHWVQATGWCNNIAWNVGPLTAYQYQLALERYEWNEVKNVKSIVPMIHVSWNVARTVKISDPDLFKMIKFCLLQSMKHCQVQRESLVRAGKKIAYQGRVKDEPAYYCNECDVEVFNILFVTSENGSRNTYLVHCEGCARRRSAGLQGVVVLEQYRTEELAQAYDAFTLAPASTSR

[5] = biological target: T2, Lysine-specific demethylase 4A (Homo sapiens, UniProt O75164); experiment: Inhibition of recombinant human N-terminal His-tagged KDM4A (1 to 350 residues) expressed in Escherichia coli using methylated biotin-H3K9 substrate preincubated for 10 mins followed by substrate addition measured after 10 mins by AlphaLisa assay
T2 sequence (O75164 whole entry): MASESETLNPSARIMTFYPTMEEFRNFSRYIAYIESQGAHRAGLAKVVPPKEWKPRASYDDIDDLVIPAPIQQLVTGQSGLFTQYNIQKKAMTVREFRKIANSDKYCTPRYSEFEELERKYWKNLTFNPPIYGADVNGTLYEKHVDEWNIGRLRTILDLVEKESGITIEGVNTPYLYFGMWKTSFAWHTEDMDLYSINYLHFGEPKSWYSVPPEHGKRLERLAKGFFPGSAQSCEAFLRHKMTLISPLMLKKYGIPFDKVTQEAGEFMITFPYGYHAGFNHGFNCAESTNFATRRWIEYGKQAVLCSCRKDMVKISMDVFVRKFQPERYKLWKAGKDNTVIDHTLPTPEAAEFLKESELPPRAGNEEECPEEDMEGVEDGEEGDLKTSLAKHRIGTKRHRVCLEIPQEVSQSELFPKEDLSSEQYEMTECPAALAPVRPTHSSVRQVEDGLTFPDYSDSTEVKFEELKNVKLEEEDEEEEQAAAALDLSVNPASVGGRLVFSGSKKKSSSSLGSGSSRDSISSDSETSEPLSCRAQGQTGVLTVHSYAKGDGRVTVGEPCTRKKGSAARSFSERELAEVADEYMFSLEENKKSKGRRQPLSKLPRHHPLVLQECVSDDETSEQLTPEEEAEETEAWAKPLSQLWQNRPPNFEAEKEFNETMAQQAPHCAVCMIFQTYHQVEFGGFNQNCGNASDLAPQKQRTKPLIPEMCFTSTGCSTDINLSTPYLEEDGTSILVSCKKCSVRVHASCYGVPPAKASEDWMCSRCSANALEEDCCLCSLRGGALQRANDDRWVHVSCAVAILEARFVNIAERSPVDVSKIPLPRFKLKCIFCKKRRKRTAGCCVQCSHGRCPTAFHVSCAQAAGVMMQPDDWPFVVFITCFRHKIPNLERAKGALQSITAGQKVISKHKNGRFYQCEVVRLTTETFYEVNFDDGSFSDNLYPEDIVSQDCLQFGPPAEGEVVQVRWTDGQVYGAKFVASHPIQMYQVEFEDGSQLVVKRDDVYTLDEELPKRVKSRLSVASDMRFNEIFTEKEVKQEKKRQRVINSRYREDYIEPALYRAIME

[6] = biological target: Lysine-specific demethylase 6A (Homo sapiens, UniProt O15550)
Chain of Lysine-specific demethylase 6A (O15550 whole entry): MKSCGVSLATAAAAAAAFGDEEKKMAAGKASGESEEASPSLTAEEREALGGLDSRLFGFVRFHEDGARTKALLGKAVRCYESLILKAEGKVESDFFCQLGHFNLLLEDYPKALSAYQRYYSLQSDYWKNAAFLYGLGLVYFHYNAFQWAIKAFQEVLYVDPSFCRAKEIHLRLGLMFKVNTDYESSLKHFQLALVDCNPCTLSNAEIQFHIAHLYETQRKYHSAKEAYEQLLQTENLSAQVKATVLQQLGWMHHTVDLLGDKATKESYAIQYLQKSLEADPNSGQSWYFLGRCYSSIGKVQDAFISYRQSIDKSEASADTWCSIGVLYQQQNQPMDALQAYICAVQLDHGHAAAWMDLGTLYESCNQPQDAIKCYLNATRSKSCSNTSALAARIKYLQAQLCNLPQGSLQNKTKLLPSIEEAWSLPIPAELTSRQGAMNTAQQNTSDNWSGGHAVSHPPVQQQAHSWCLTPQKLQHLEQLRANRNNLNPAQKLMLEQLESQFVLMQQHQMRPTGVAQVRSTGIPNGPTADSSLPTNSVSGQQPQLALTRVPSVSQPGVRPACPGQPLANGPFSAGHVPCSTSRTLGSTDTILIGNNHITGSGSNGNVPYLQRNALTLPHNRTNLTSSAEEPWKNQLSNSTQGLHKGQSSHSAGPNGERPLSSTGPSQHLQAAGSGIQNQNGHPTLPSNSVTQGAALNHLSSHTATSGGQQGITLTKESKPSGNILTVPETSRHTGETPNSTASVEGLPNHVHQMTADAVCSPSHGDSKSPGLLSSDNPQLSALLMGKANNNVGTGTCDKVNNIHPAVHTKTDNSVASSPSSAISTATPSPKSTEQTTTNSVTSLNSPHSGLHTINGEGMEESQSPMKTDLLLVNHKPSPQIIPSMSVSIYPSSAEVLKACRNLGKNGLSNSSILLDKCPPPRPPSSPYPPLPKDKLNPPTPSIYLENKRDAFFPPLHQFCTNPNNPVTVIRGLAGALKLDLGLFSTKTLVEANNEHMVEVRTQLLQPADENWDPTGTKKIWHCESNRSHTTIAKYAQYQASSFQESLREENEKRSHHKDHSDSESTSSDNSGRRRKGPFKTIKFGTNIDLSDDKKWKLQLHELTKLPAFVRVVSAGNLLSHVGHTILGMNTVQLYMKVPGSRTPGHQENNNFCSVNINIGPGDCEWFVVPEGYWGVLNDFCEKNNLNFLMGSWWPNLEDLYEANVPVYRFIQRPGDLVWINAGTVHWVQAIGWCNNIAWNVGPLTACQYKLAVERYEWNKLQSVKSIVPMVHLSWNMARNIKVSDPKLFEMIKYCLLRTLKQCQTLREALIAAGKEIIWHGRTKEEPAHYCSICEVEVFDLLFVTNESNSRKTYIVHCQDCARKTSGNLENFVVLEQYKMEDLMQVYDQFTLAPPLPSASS

Chain of Lysine-specific demethylase 5C (P41229 whole entry): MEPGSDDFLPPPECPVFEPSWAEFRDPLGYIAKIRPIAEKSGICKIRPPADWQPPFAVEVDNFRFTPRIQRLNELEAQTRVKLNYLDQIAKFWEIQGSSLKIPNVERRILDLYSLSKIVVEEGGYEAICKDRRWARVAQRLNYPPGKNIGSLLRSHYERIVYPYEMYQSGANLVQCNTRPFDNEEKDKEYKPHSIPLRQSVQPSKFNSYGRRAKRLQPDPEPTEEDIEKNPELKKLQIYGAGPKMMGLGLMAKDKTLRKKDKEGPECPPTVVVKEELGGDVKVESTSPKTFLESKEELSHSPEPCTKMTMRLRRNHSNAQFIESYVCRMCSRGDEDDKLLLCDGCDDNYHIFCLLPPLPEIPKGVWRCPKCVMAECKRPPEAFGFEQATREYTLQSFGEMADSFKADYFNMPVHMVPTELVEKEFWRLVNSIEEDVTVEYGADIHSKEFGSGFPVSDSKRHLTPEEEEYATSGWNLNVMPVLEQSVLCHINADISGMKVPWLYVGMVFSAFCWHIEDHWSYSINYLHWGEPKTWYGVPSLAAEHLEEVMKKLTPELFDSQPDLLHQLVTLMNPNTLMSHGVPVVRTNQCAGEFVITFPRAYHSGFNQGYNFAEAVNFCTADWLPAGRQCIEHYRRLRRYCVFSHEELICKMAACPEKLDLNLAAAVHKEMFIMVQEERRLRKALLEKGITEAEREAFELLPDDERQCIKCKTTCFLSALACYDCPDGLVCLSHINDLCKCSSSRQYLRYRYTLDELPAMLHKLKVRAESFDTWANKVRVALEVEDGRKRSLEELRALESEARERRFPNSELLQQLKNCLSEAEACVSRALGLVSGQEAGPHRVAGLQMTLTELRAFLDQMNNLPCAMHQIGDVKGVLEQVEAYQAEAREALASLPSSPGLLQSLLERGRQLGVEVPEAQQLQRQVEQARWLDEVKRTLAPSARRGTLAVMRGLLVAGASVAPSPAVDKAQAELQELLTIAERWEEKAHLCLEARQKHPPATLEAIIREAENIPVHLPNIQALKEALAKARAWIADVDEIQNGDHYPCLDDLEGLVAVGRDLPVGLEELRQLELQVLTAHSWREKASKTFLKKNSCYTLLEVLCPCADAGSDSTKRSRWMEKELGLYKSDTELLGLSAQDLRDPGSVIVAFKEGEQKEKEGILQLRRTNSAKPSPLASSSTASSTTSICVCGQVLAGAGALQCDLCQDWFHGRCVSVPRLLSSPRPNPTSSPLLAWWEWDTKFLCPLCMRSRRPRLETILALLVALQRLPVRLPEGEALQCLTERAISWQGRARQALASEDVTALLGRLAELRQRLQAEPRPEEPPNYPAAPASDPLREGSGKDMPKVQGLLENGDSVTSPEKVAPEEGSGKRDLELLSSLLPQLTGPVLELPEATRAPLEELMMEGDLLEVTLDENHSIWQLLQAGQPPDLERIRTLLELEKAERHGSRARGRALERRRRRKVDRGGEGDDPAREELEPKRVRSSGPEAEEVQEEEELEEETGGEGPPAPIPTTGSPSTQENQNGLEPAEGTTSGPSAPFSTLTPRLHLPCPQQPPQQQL

IC50 [1] [nM] | IC50 [2] [nM] | IC50 [3] [nM] | IC50 [4] [nM] | IC50 [5] [nM] | IC50 [6] [nM] | Compound
< 100 | < 100 | 100 | > 1000 | < 100 | > 1000 | CCN(CCN(C)C)C(=O)CNCc1cc(C(=O)O)ccn1
< 250 | < 250 | > 2500 | > 2500 | > 2500 | > 2500 | CCN(CC)CCCCNCc1cc(C=O)ccn1
250 | 250 | > 2500 | > 2500 | > 2500 | > 2500 | CCN(CCN(C)C)C(=O)CNCc1cc(CNC(=O)C(F)(F)F)ccn1
